Results: patent US20090062400A1 (priority 2007, published 2009)

What was measured:
retinal ganglion cells [1] = conditions: rats, rasagiline in the drinking water
From the text: Chronic, moderately elevated IOP is produced unilaterally by cautery of three episcleral vessels; the contralateral eye served as the control. To perform the cautery, sutures are placed in the lids to keep the eye open and in the bulbar conjunctiva to manipulate the globe. Three of the four to five major trunks formed by limbal-derived veins are exposed at the equator of the eye by incising the conjunctiva. Each vessel is lifted with a small muscle hook and cauterized by direct application of an ophthalmic, disposable cautery against the muscle hook. Immediate retraction and absence of bleeding of the cauterized ends of the vessels are noted as successful cauterization. After surgery, eyes are treated topically with bacitracin-neomycin-polymyxin for a few days during recovery.
One group is treated with rasagiline, in the drinking water, for a period of time. Another group is not treated with rasagiline, but receives drinking water on the same schedule. Once a month, each animal is anesthetized and IOP is determined bilaterally. The animals are awake within 15 minutes of the IOP measurement. On any given eye, three to five tonometer readings are taken and averaged. […]
Labeled retinal ganglion cells are counted using fluorescence microscopy in 12 fields of the retina.

[2] = patients with glaucomatous optic neuropathy, vs placebo
[3] = rats
Method: Rats were sacrificed 2-3 hours after last administration. According to preliminary experiment, in order to obtain enough substance for MAO and protein analysis, 4 retinas (from 2 rats) were combined into one sample, (3 retina samples for MAO per each dose groups). The 6 brains and 6 livers were analyzed separately.

[4] = rasagiline alone; cited from earlier work
[5] = tested on: retinal ganglion cells (RGCs); conditions: Long Evans rats, IP 30 minutes before and 2 hours after ischemia, then once daily
Method: Thirty (30) male pigmented rats (Long Evans) are obtained and divided evenly into 3 groups, (2 test groups and 1 control group) 10 animals in each group. Retinal ischemia is induced by a 100/200-mmHg hyperpressure saline column applied to the eye through a needle for 60 minutes.
For the control group, the vehicle (saline solution) is administered IP 30 minutes before ischemia and 2 hours after ischemia.
Electroretinographic (ERG) measurements of a- and b-wave implicit times and peak amplitudes under scotopic conditions at maximal intensity are taken at baseline (just before ischemia), and 4-7 days after reperfusion.
Sampling of fixed flatmount retinas and histological processing for annexin-5 labeling or TUNEL labeling.

retinal ganglion cells [6] = conditions: adult rats, rasagiline before intravitreal SSP
Method: The effect of rasagiline on RGC survival is tested in a rat model of RGC survival.
In this well-established model it is used to induce apoptosis of retinal ganglion cells.
Adult rats are used in all rat experiments.
Rats receive a dose of intravitreal SSP in PBS. Animals are imaged immediately and up to 6 h, after which they are sacrificed for histology.
To examine the effect of rasagiline on the survival of RGCs, one group of rats are treated with rasagiline for a period of time before SSP. A further group of naïve rats receives no rasagiline.
The animal is positioned before the cLSO so that the interior of the eye is imaged. An Argon laser wavelength of 488 nm is focused into a small spot and scanned across the retina by a pair of mirrors to excite the administered annexin 5-bound fluorophore. The fluorescence is detected by a solid-state photodetector.
For imaging, animals are held in a stereotaxic frame and their pupils dilated. Videos of scanned retinal areas are assessed for fluorescence. All animals have baseline images recorded before receiving intravitreal injections of Alexa Fluor 488-labeled annexin-5. […]
Fluorescent retinas are assessed by using a confocal laser scanning microscope.
The number of stained RGC and annexin 5-labeled apoptotic RGCs are counted with microscopy analysis software.

[7] = tested on: retinal ganglion cells (RGCs); conditions: Lewis rats, subcutaneous injection, single or repeated (treatment and prevention protocols)
retinal ganglion cells [8] = conditions: Wistar rats, 0.5 and 3 mg/kg IP once daily, 6 weeks
Method: Male Wistar rats weighing 375-400 gm are treated under procedures approved and monitored by the Animal Care Committee of the Tel-Aviv University School of Medicine and following the procedures outlined in the Association for Research in Vision and Opthalmology Statement for the use of animals in ophthalmic and vision research. Animals are housed with a 14 hour light/10 hour dark cycle with standard chow and water ad libitum.
Glaucoma is induced in one eye of rats by using the translimbal laser photocoagulation model developed by Levkovitch-Verbin. This model can produce elevated IOP and typical glaucomatous optic nerve damage in most treated eyes.
In this model, the outflow channels of the rat eye are treated by argon laser at 532 nm. […] IOP is measured with Tonopen XL under the above anaesthesia in both eyes before and immediately after laser treatment and weekly thereafter. Each time ten measurements are obtained on each eye and the mean value is calculated. […]
The volume of administration is 2 ml/kg. […] (calculated for a rat weighing 400 g). […]
Thirty-two (32) images of ×40 magnification from each retina (both eyes for each rat) are photographed using a fluorescent microscope, and the number of surviving retinal ganglion cells are counted for each eye. The number of RGCs in the experimental eye are compared to the fellow control eye to calculated the RGC loss. […]

[9] = double-blind, placebo-controlled trial; cited from earlier work
[10] = retinal degeneration slow mouse; cited from earlier work

With `C#CCN[C@@H]1CCc2ccccc21` [Rasagiline, R(+)—N-propargyl-1-aminoindan] the “effect in the chronic, moderately elevated IOP model (RGC survival)” value (retinal ganglion cells [1]) was “positive effect”, the “atrophy of the optic nerve” value [2] was “reduced atrophy” and the “preservation of the retina and of the structural integrity of the optic nerve” value [2] was “increased preservation”. For the same compound, the “protection against loss of RGCs” value [2] was “increased protection”, the visual field loss [2] was “reduced visual field loss” and the “irritation to the eye” value ([3]; preliminary test performed for 2 days, eye drops) was “did not cause irritation to the eye”. The “absorption after intraocular administration” value ([3]; eye drops 0.0165-7.9 mg/kg/day, 10 days) was “absorbed in all doses”, the “effectiveness in the ALS mouse model” value [4] was “effective treatment” and the “recovery of the retinal electric activity and/or number of apoptotic RGCs after transient ischemia” value [5] was “positive effect”. For the same compound, the “effect in the SSP model (RGC apoptosis)” value (retinal ganglion cells [6]) was “positive effect”, the “effect in the IOP model (RGC survival)” value [7] was “positive effect” and the “effect in the experimental glaucoma model” value (retinal ganglion cells [8]) was “positive effect”. The “ganglion survival in the treated group” value (retinal ganglion cells [8]) was “More ganglion survival”.

In the case of `C#CCN(C)[C@H](C)Cc1ccccc1` [Selegiline], the “effectiveness in treating ALS” value [9] is listed as “ineffective”.

In the case of `C[C@]12C=CC(=O)C=C1CC[C@@H]1[C@@H]2[C@@H](O)C[C@@]2(C)[C@H]1CC[C@]2(O)C(=O)CO` [prednisolone], the “effect on retinal degeneration” value [10] is listed as “unsuccessful”.
